Three molecules from patent US11396511B2, “Substituted 9,13b-dihydro-1H-dibenzo[c,f]imidazo[1,5-a]azepin-3-ylbenzamides as anti-inflammatory and analgesic agents” (FRONTBIO CO., LTD., priority 2017, dated 2022) can be followed below.

The test system of series [1] is Raw 264.7 cells. Description: Measurement of NO production in LPS-stimulated Raw 264.7 cells. It is filed as cell-based. Particulars: for inhibition at 12.5 µM / inhibition at 25 µM / inhibition at 50 µM / inhibition at 100 µM: Mus musculus, RAW264.7, LPS 100 ng/ml, 24 h. On the procedure: Raw 264.7 cells were plated in a 96-well cell culture plate (50,000 cells/well). Lipopolysaccharide (LPS) was diluted to 100 ng/ml and the dilution was added to the cell culture media The LPS stimulus was applied for 24 h to induce the activity of the Raw 264.7 cells and supernatants (50 μl each) obtained from the 96-well cell culture plate were plated in a new plate. 50 μl of a sulfanilamide solution was added and the reaction was allowed to proceed for 10 min. 50 μl of a NED solution was added and the reaction was allowed to proceed for 10 min. The amount of NO produced from the cells in the cell culture media was determined by measuring the absorbance at a wavelength of 540 nm.

For series [2], the system named is Raw 264.7 cells. Description: Cell viability measurement (MTS). It is filed as cell-based. On the procedure:
Raw 264.7 cells were plated in a 96-well cell culture plate (50,000 cells/well). The cell culture media were removed from the 96-well cell culture plate. 100 μl of MTS reagent (CellTiter 96 AQueous One Solution Cell Proliferation Assay, Promega) was added to each well and the reaction was allowed to proceed at 37° C. for 20 min. After the reaction was finished, the cell viability were determined by measuring the absorbance at a wavelength of 490 nm.

By inhibition is commonly meant the relative decrease from the control value, in per cent.

Each structure is given as a SMILES string.

For the molecule `CC(=O)Oc1ccccc1C(=O)O` [Aspirin, acetylsalicylic acid (aspirin)], in series [1], the inhibition at 12.5 µM came out at 0%, the inhibition at 25 µM came out at 0% and the inhibition at 50 µM is 9.29%. For the same molecule, the inhibition at 100 µM in series [1] (100 μM) came out at 12.4%. Further, the “reduction of NO production (in words)” value in series [1] (together with LPS (100 ng/ml)) was “less effective in reducing the production of NO”. For the same molecule, the “cell toxicity (cell viability, MTS)” value in series [2] is “no cell toxicities were observed”.

For the molecule `NC1=NCC2c3ccccc3Cc3ccccc3N12` (stereo not drawn) [Epinastine, epinastine], the “reduction of NO production (in words)” value in series [1] (100 μM, LPS (100 ng/ml)) is “found to reduce the production of NO”. In series [1], this molecule displayed an inhibition at 12.5 µM of 0%, an inhibition at 25 µM of 5.48% and an inhibition at 50 µM of 18.7%. Further, the inhibition at 100 µM in series [1] (100 μM) amounted to 33.4%. The “cell toxicity (cell viability, MTS)” value in series [2] is listed as “no cell toxicities were observed”.

In series [1], `O=C(O)c1ccccc1O` [Salicylic acid] displayed an inhibition at 12.5 µM of 0%, an inhibition at 25 µM of 1.27% and an inhibition at 50 µM of 7.18%. Further, the inhibition at 100 µM in series [1] (100 μM) was determined as 15.6%. Also, the “reduction of NO production (in words)” value in series [1] (together with LPS (100 ng/ml)) was “less effective in reducing the production of NO”. For the same molecule, the “cell toxicity (cell viability, MTS)” value in series [2] was “no cell toxicities were observed”.
